Measured values published in ChEMBL document CHEMBL4382283, “Discovery of a GPR40 Superagonist: The Impact of Aryl Propionic Acid α-Fluorination” (ACS Med Chem Lett, 2019).
Activity calls are given as the source filed them. The calls are words filed in the database; no cut-off is given here.

Assays:
[1] = biological target: T1, Free fatty acid receptor 1 (Homo sapiens, UniProt O14842); assay: Agonist activity at human GPR40 expressed in HEK293 cells assessed as induction of intracellular calcium mobilization by Fluo-8 dye based FLIPR assay; type: functional, cell-based
T1 sequence (O14842 whole entry): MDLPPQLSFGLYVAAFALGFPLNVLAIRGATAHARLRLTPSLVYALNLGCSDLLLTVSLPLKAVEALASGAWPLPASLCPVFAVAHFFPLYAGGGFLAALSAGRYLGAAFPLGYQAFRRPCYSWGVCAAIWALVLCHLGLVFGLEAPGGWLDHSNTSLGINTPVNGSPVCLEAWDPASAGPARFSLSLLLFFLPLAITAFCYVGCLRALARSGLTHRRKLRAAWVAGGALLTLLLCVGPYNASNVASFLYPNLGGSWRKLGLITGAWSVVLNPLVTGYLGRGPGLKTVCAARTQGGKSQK

[2] = biological target: Free fatty acid receptor 1 (Rattus norvegicus, UniProt Q8K3T4); assay: Agonist activity at rat GPR40 expressed in HEK293 cells assessed as induction of intracellular calcium mobilization by Fluo-8 dye based FLIPR assay; type: functional, cell-based
Sequence of Free fatty acid receptor 1 (Rattus norvegicus, UniProt Q8K3T4) (Q8K3T4 whole entry): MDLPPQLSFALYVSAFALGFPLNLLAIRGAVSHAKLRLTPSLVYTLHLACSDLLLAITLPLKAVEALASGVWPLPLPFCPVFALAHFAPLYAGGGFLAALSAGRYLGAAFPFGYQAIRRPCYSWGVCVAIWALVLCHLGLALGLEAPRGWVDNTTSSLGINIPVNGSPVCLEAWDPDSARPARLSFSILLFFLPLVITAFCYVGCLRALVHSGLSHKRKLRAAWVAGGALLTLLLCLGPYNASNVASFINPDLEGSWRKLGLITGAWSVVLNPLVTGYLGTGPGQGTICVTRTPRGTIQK

[3] = biological target: T1, Free fatty acid receptor 1; assay: Agonist activity at human GPR40 expressed in CHOK1 cells assessed as induction of Galphaq-mediated IP1 accumulation after 90 mins HTRF assay; type: functional, cell-based
[4] = biological target: T1, Free fatty acid receptor 1; assay: Full agonist activity at human GPR40 expressed in CHOK1 cells assessed as induction of GalphaS-mediated cAMP accumulation after 30 mins HTRF assay; type: functional, cell-based
[5] = tested on: Rattus norvegicus; assay: Antiobesity activity in ZDF rat assessed as body weight loss at 10 mg/kg daily for 38 days relative to control; type: functional
[6] = tested on: Rattus norvegicus; assay: Antiobesity activity in ZDF rat assessed as reduction in food intake at 10 mg/kg daily for 38 days relative to control; type: functional; set-up: scale not given: the % may be the effect or the level left
[7] = tested on: Rattus norvegicus; assay: In vivo agonist activity at GPR40 in ZDF rat assessed as increase in plasma total GLP1 level at 10 mg/kg daily for 38 days relative to control; type: functional
[8] = biological target: T1, Free fatty acid receptor 1; assay: Agonist activity at GPR40 in human islets assessed as induction of glucose-stimulated insulin secretion after 1 hr by HTRF assay
[9] = biological target: T1, Free fatty acid receptor 1; assay: Positive allosteric modulation of human GPR40 expressed in CHOK1 cells assessed as increase in [3H]-(S)-3-Cyclopropyl-3-(3-(((1r,4S)-4-(2-fluoro-5-methoxyphenyl)cyclohexyl)methoxy)phenyl)propanoic acid binding after 60 mins by TopCount method; type: cell-based
[10] = Metabolic stability in human hepatocytes assessed as parent compound remaining at 10 uM after 2 hr by LC-MS analysis; type: ADME, cell-based, Hepatocyte
[11] = Drug metabolism in human hepatocytes at 10 uM after 2 hr by LC-MS analysis; type: ADME, cell-based, Hepatocyte
[12] = Cmax in Sprague-Dawley rat at 10 mg/kg, po by LC-MS/MS analysis; type: ADME, organism-based; set-up: dose 10 mg/kg, route oral; conditions: in vivo
[13] = Half life in Sprague-Dawley rat at 10 mg/kg, po by LC-MS/MS analysis; type: ADME, organism-based; conditions: in vivo
[14] = Half life in Sprague-Dawley rat at 2 mg/kg, iv by LC-MS/MS analysis; type: ADME, organism-based; conditions: in vivo
[15] = Clearance in Sprague-Dawley rat at 10 mg/kg, po or 2 mg/kg, iv by LC-MS/MS analysis; type: ADME, organism-based; conditions: in vivo
[16] = Volume of distribution at steady state in Sprague-Dawley rat at 10 mg/kg, po or 2 mg/kg, iv by LC-MS/MS analysis; type: ADME, organism-based; conditions: in vivo, read-out: Vdss
[17] = Oral bioavailability in Sprague-Dawley rat at 10 mg/kg by LC-MS/MS analysis; type: ADME, organism-based; conditions: in vivo
[18] = tested on: Mus musculus; assay: Antidiabetic activity in diet-induced obese mouse assessed as reduction in blood glucose excursion at 10 mg/kg, po administered 45 mins prior to glucose challenge and measured up to 120 mins by OGTT; type: functional, organism-based
[19] = Plasma concentration in diet-induced obese mouse at 10 mg/kg, po; type: ADME, organism-based; conditions: in vivo
[20] = Protein binding in human plasma at 10 uM after 6 hrs by equilibrium dialysis method; type: ADME, cell-free; conditions: read-out: PPB
[21] = biological target: T1, Free fatty acid receptor 1
Description: Displacement of [3H]AM-1638 from human GPR40 expressed in CHOK1 cells assessed as association half life after 60 mins by TopCount method

[22] = biological target: T1, Free fatty acid receptor 1; remark: listed apart in the source
Description: Displacement of [3H]AM-1638 from human GPR40 expressed in CHOK1 cells assessed as dissociation half life after 40 mins by TopCount method

[23] = biological target: T1, Free fatty acid receptor 1; assay: Agonist activity at GPR40 in human islets assessed as induction of glucose-stimulated insulin secretion at 10 uM after 1 hr by HTRF assay relative to (S)-3-Cyclopropyl-3-(3-(((1r,4S)-4-(2-fluoro-5-methoxyphenyl)cyclohexyl)methoxy)phenyl)propanoic acid
[24] = biological target: T1, Free fatty acid receptor 1; assay: Partial agonist activity at human GPR40 expressed in CHOK1 cells assessed as induction of GalphaS-mediated cAMP accumulation after 30 mins HTRF assay; type: functional, cell-based
[25] = tested on: Cytochrome P450; assay: Inhibition of CYP450 in human liver microsomes at 10 uM after 0.5 hrs by LC-MS/MS analysis; type: ADME
[26] = tested on: Cytochrome P450; assay: Induction of CYP450 in human liver microsomes at 10 uM after 0.5 hrs by LC-MS/MS analysis; type: ADME
[27] = Genotoxicity in Salmonella typhi by Ames test; type: toxicity; conditions: salmonella enterica subsp. enterica serovar […]
[28] = biological target: Voltage-gated inwardly rectifying potassium channel KCNH2 (Homo sapiens, UniProt Q12809); assay: Inhibition of human ERG
Sequence of Voltage-gated inwardly rectifying potassium channel KCNH2 (Q12809 whole entry): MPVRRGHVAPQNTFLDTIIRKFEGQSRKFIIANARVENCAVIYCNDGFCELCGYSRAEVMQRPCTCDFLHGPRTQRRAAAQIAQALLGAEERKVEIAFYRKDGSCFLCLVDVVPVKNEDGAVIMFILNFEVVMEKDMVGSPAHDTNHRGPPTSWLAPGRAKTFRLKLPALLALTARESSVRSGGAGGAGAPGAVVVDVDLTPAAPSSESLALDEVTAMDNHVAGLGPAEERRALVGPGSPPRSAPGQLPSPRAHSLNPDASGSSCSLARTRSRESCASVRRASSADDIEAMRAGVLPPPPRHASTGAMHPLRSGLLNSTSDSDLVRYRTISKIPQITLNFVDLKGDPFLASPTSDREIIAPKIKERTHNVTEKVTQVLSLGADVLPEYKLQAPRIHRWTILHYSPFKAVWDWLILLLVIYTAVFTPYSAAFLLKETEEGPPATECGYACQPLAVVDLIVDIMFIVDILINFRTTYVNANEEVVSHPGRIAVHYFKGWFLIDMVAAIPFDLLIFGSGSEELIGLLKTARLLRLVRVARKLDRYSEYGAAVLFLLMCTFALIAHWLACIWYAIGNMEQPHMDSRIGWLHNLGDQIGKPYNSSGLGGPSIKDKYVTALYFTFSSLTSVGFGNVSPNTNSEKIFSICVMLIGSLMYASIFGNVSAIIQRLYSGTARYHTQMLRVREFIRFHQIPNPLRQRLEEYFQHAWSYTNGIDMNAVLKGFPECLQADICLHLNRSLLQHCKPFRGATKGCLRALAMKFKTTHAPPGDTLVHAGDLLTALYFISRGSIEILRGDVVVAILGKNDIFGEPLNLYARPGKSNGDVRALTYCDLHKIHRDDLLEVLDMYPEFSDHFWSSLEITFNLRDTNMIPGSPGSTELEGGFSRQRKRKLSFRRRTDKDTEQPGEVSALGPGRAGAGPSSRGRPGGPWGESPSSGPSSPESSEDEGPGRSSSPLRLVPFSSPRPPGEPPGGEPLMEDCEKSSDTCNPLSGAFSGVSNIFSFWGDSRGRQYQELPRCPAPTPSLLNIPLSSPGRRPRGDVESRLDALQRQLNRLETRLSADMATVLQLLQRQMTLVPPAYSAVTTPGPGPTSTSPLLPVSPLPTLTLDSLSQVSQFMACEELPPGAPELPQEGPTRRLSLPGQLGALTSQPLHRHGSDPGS

[29] = tested on: Mus musculus; assay: Antidiabetic activity in diet-induced obese mouse assessed as reduction in blood glucose excursion administered orally 45 mins prior to glucose challenge and measured up to 120 mins by OGTT; type: functional
[30] = Plasma concentration in diet-induced obese mouse at 0.03 mg/kg, po; type: ADME, organism-based; conditions: in vivo
[31] = Plasma concentration in diet-induced obese mouse at 0.1 mg/kg, po; type: ADME, organism-based; conditions: in vivo
[32] = Plasma concentration in diet-induced obese mouse at 0.3 mg/kg, po; type: ADME, organism-based; conditions: in vivo
[33] = Plasma concentration in diet-induced obese mouse at 1 mg/kg, po; type: ADME, organism-based; conditions: in vivo
[34] = Plasma concentration in diet-induced obese mouse at 3 mg/kg, po; type: ADME, organism-based; conditions: in vivo
[35] = tested on: Mus musculus; assay: Antiobesity activity in diet-induced obese C57BL/6J mouse assessed as body weight loss administered orally once daily for 14 days; type: functional, organism-based
[36] = tested on: Mus musculus; assay: Antiobesity activity in diet-induced obese C57BL/6J mouse assessed as reduction in cumulative food intake administered orally once daily for 14 days; type: functional, organism-based
[37] = tested on: Mus musculus; assay: Antiobesity activity in diet-induced obese C57BL/6J mouse assessed as body weight loss at 0.3 mg/kg, po once daily for 14 days measured on day 15 (reference value: 3.74 +/- 0.6%); type: functional
[38] = tested on: Mus musculus; assay: Antiobesity activity in diet-induced obese C57BL/6J mouse assessed as body weight loss at 1 mg/kg, po once daily for 14 days measured on day 15 (reference value: 3.74 +/- 0.6%); type: functional
[39] = tested on: Mus musculus; assay: Antiobesity activity in diet-induced obese C57BL/6J mouse assessed as body weight loss at 3 mg/kg, po once daily for 14 days measured on day 15 (reference value: 3.74 +/- 0.6%); type: functional
[40] = tested on: Mus musculus; assay: Antiobesity activity in diet-induced obese C57BL/6J mouse assessed as body weight loss at 10 mg/kg, po once daily for 14 days measured on day 15 (reference value: 3.74 +/- 0.6%); type: functional
[41] = tested on: Mus musculus; assay: Antiobesity activity in diet-induced obese C57BL/6J mouse assessed as body weight loss at 30 mg/kg, po once daily for 14 days measured on day 15 (reference value: 3.74 +/- 0.6%); type: functional
[42] = Plasma concentration in diet-induced obese C57BL/6J mouse at 0.3 mg/kg, po once daily for 14 days measured 24 hrs post last dose; type: ADME, organism-based
[43] = Plasma concentration in diet-induced obese C57BL/6J mouse at 1 mg/kg, po once daily for 14 days measured 24 hrs post last dose; type: ADME, organism-based
[44] = Plasma concentration in diet-induced obese C57BL/6J mouse at 3 mg/kg, po once daily for 14 days measured 24 hrs post last dose; type: ADME, organism-based
[45] = Plasma concentration in diet-induced obese C57BL/6J mouse at 10 mg/kg, po once daily for 14 days measured 24 hrs post last dose; type: ADME, organism-based
[46] = Plasma concentration in diet-induced obese C57BL/6J mouse at 30 mg/kg, po once daily for 14 days measured 24 hrs post last dose; type: ADME, organism-based

## COc1ccc(F)c([C@H]2CC[C@H](COc3cccc([C@H](C4CC4)C(F)(F)C(=O)O)c3)CC2)c1
[1]
  EC50: 16 nM
[2]
  EC50: 34 nM

## COc1ccc(F)c(-c2ccc(COc3cccc([C@@H](CC(=O)O)C4CC4)c3)cc2C2=CCCC2(C)C)c1
[3]
  Activity: Active
[4]
  Activity: Active

## COc1ccc(F)c([C@H]2CC[C@H](COc3cccc([C@H](C4CC4)[C@@H](C)C(=O)O)c3)CC2)c1
[1]
  EC50: 2.2 nM
[3]
  EC50: 22 nM
[2]
  EC50: 4.9 nM

## COc1ccc(F)c([C@H]2CC[C@H](COc3cccc([C@H](C4CC4)[C@H](F)C(=O)O)c3)CC2)c1
[1]
  EC50: 54 nM
[2]
  EC50: 163 nM
[4]
  Activity: Active

## COc1ccc(F)c([C@H]2CC[C@H](COc3cccc([C@H](C4CC4)[C@](C)(F)C(=O)O)c3)CC2)c1
[3]
  EC50: 89 nM
[4]
  Activity: Active

## COc1ccc(F)c([C@H]2CC[C@H](COc3cccc([C@@H](CC(=O)O)C4CC4)c3)CC2)c1
[1]
  EC50: 0.94 nM
[3]
  EC50: 199 nM
[2]
  EC50: 4.1 nM
[4]
  Activity: Active
[5]
  Activity: 6%
[6]
  Activity: 10%
[7]
  fold change (FC): 6.2
[8]
  EC50: 1370 nM
[9]
  Activity: Active
[10]
  Stability: 56%
[11]
  Drug metabolism: 4%
[12]
  Cmax: 18200 ng/mL
[13]
  half-life: 9.1 h
[14]
  half-life: 7.2 h
[15]
  clearance: 0.4 mL/min/kg
[16]
  Vd: 0.2 L/kg
[17]
  bioavailability: 91.4%
[18]
  Activity: Active
[19]
  concentration: 98700 nM
[20]
  fraction unbound at 6 h, 10 µM: < 0.001
[21]
  T1/2: 0.8 min
[22]
  T1/2: 0.00233 h

## Cc1cc(OCCCS(C)(=O)=O)cc(C)c1-c1cccc(COc2ccc3c(c2)OC[C@H]3CC(=O)O)c1
[2]
  EC50: 39 nM
[23]
  Efficacy: 40%

## COc1ccc(F)c([C@H]2CC[C@@H](COc3cccc([C@@H](CC(=O)O)C4CC4)c3)CC2)c1
[24]
  Activity: Active

## COc1ccc(F)c([C@H]2CC[C@H](COc3cccc([C@H](C4CC4)[C@H](C)C(=O)O)c3)CC2)c1
[3]
  EC50: 2 nM
[10]
  Stability: 45%
[11]
  Drug metabolism: 5%
[12]
  Cmax: 1360 ng/mL
[13]
  half-life: 4.4 h
[14]
  half-life: 4.8 h
[15]
  clearance: 8.1 mL/min/kg
[16]
  Vd: 0.9 L/kg
[17]
  bioavailability: 45.5%

## COc1ccc(F)c([C@H]2CC[C@H](COc3cccc([C@H](C4CC4)[C@@](C)(F)C(=O)O)c3)CC2)c1
[1]
  EC50: 0.25 nM
[3]
  EC50: 3.1 to 5.3 nM
[2]
  EC50: 0.34 nM
[4]
  Activity: Active
[8]
  EC50: 3.7 nM
[9]
  Activity: Active
[10]
  Stability: 73%
[11]
  Drug metabolism: 1%
[25]
  inhibition (INH): Not Active
[26]
  Activity: Not Active
[27]
  Activity: Non-Toxic
[28]
  inhibition (INH): Not Active
[12]
  Cmax: 495 ng/mL
[13]
  half-life: 7.9 h
[14]
  half-life: 4.3 h
[15]
  clearance: 17 mL/min/kg
[16]
  Vd: 3.2 L/kg
[17]
  bioavailability: 92.1%
[29]
  Activity: Dose-dependent effect
[29]; po, read-out: MED
  minimal effective dose: 3 mg/kg
[30]
  concentration: 7.4 nM
[31]
  concentration: 22 nM
[32]
  concentration: 87 nM
[33]
  concentration: 220 nM
[34]
  concentration: 870 nM
[19]
  concentration: 3830 nM
[35]
  Activity: Dose-dependent effect
[36]
  Activity: Dose-dependent effect
[37]
  Activity: 3.15%
[38]
  Activity: 1.05%
[39]
  Activity: -2.56%
[40]
  Activity: -10.07%
[41]
  Activity: -6.84%
[42]
  concentration at 24 h: 100 nM
[43]
  concentration at 24 h: 340 nM
[44]
  concentration at 24 h: 1290 nM
[45]
  concentration at 24 h: 7050 nM
[46]
  concentration at 24 h: 391000 nM
[20]
  fraction unbound at 6 h, 10 µM: < 0.001
[21]
  T1/2: 3.3 min
[22]
  T1/2: 0.333 h

## COc1ccc(F)c([C@H]2CC[C@H](COc3cccc([C@H](C4CC4)[C@@H](F)C(=O)O)c3)CC2)c1
[1]
  EC50: 1.1 nM
[3]
  EC50: 20 nM
[2]
  EC50: 28 nM
[4]
  Activity: Active
[10]
  Stability: 63%
[11]
  Drug metabolism: 7%
[12]
  Cmax: 3700 ng/mL
[13]
  half-life: 4.3 h
[14]
  half-life: 4.7 h
[15]
  clearance: 2.7 mL/min/kg
[16]
  Vd: 0.9 L/kg
[17]
  bioavailability: 73.8%

## COc1ccc(F)c([C@H]2CC[C@H](COc3cccc([C@H](C4CC4)C(C)(C)C(=O)O)c3)CC2)c1
[1]
  EC50: 0.11 nM
[3]
  EC50: 220 nM
[2]
  EC50: 0.31 nM
